Measurements published in patent US20080114080A1, “Compositions and Methods for the Treatment of Cystic Fibrosis and other Pulmonary Disorders” (priority 2006, published 2008).
Values after ≈ are worked out from the molar mass of the structure shown. Read-outs that look alike come from different tables or passages of the source.

Columns and labels:
[1] = cited from earlier work
[2] = recent report; cited from earlier work
[3] = test system: rat colon epithelial cells; settings: cited from earlier work
[4] = test system: chemokine receptors (CXCR2/b); assay: Cl- transport/efflux in Calu-3 cells, IL-8 via chemokine receptors; type: cell-based, human
[5] = target: mutant forms (ΔF508) of CFTR (Homo sapiens, UniProt P13569, DEL508-508); settings: cited from earlier work
Sequence of mutant forms (ΔF508) of CFTR (P13569 with tags, fused parts or gaps DEL508-508): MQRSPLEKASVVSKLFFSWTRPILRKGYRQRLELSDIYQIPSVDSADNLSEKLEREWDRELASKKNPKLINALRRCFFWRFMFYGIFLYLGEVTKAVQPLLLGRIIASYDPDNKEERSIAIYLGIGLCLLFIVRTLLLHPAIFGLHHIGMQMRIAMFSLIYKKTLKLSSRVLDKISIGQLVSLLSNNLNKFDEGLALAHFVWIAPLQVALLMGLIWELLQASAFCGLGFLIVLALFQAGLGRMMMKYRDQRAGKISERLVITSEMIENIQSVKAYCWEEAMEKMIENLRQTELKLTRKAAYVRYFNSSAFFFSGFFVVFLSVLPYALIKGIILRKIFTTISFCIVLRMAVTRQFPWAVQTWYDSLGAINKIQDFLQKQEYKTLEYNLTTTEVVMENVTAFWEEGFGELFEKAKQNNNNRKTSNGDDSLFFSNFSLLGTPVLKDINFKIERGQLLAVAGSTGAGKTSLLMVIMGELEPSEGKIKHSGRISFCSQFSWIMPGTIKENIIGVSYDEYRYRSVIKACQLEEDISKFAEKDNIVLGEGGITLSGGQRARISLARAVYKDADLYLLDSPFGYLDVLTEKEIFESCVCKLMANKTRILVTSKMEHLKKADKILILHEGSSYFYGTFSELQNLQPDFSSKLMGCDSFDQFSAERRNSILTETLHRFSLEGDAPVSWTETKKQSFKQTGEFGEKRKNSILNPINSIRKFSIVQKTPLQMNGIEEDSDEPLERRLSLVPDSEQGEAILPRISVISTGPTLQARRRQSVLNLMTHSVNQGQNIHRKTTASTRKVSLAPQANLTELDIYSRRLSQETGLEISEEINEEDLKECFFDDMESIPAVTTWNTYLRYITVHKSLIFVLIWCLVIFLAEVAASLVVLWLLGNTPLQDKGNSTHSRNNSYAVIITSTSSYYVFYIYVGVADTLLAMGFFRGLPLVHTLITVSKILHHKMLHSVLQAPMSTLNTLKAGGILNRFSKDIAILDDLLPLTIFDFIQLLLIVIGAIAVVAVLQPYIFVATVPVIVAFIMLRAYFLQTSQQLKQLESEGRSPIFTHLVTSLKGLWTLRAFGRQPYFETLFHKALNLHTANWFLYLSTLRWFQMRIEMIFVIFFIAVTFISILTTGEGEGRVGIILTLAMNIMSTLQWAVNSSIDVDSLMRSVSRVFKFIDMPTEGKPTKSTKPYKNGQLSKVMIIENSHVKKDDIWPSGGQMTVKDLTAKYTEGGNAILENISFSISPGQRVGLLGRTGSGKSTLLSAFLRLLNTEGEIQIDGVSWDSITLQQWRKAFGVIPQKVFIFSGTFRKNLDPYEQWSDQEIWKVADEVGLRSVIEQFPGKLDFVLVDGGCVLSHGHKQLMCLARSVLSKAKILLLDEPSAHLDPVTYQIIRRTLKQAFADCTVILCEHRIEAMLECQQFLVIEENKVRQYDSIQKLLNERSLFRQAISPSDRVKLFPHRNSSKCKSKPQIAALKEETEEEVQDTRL

[6] = target: T1, C5aR (CD88) (Homo sapiens, UniProt P21730); assay: Cl- efflux in Calu-3 cells, C5a via C5aR; type: cell-based
T1 construct: endogenous in cells; host or cells: Calu-3 (ATCC HTB-55)
T1 sequence (P21730 1-350): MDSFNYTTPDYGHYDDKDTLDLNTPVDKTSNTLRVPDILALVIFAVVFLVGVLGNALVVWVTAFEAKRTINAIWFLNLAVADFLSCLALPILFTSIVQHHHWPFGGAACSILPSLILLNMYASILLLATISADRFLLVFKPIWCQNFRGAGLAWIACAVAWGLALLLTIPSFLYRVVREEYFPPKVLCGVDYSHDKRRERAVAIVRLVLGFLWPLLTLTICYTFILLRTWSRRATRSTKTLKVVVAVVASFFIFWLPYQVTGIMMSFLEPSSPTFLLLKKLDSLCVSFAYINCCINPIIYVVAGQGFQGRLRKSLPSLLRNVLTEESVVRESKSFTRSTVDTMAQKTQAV

[7] = test system: adenylyl cyclase activity; assay: adenylyl cyclase activity in Calu-3 cells; type: cell-based, human; settings: FIG. 6

Molecule: CNc1ccc2oc(C[C@H]3O[C@@]4(CC[C@H]3C)O[C@H]([C@H](C)C(=O)c3ccc[nH]3)[C@H](C)C[C@H]4C)nc2c1C(=O)O [A23187, calcimycin]
- Solubility ([1]; in DMSO): 50 mg/mL (≈ 95.5 mM)
- Solubility ([1]; in EtOH): 5 mg/mL (≈ 9.55 mM)

Molecule: CCCn1c(=O)c2[nH]c(C3CCCC3)nc2n(CCC)c1=O [CPX, 8-cyclo-pentyl-1,3-dipropylxanthine]
- efficacy in treating mild cystic fibrosis [2]: somewhat effective

Molecule: O=c1c(O)c(-c2ccc(O)c(O)c2)oc2cc(O)cc(O)c12 [quercetin]
- Cl- secretion [3]: induce Cl^− secretion

Molecule: IL-8: chemokine released on activation of innate immunity, activates CXCR2
- basal levels of Cl- transport ([4]; Calu-3 cells, via CXCR2/b, FIG. 9): inhibits
- cAMP dependent Cl- efflux ([4]; FIG. 10): inhibits

Molecule: CC(C)Cn1c(=O)n(C)c(=O)c2[nH]cnc21 [IBMX]
- activity of mutant CFTR, chloride transport function [5]: able to stimulate some activity

B1: C5a: proinflammatory anaphylatoxin peptide generated during complement activation, acts through C5aR (protein, UniProt P01031 678-751, looked up)
C5a anaphylatoxin: TLQKKIEEIAAKYKHSVVKKCCYDGACVNNDETCEQRAARISLGPRCIKAFTECCVVASQLRANISHKDMQLGR
modifications: C5a anaphylatoxin
- basal Cl- efflux ([6]; Calu-3 cells, via C5aR (CD88), FIG. 7): inhibits
- cAMP dependent Cl- efflux ([6]; FIG. 8): inhibits
- adenylyl cyclase activity [7]: inhibits
